Assay results published in the NIST ThermoML archive (doi:10.1016/j.jct.2017.10.012).

Details: Liquid, Vibrating tube method

CCCC[N+](C)(C)C.O=S(=O)([N-]S(=O)(=O)C(F)(F)F)C(F)(F)F [butyltrimethylammonium bis(trifluoromethylsulfonyl)imide]
Details	mass density [kg/m3]
278.15 K, 100 kPa	1411.9
278.15 K, 101.33 kPa	1411.6
278.15 K, 1000 kPa	1412.6
278.15 K, 10000 kPa	1419
278.15 K, 20000 kPa	1425.6
278.15 K, 40000 kPa	1438.3
278.15 K, 60000 kPa	1450
278.15 K, 80000 kPa	1460.7
278.15 K, 100000 kPa	1470.6
278.15 K, 120000 kPa	1480.6
279.15 K, 101.33 kPa	1410.6
280.15 K, 101.33 kPa	1409.6
281.15 K, 101.33 kPa	1408.6
282.15 K, 101.33 kPa	1407.7
283.15 K, 101.33 kPa	1406.7
284.15 K, 101.33 kPa	1405.7
285.15 K, 101.33 kPa	1404.8
286.15 K, 101.33 kPa	1403.8
287.15 K, 101.33 kPa	1402.9
288.15 K, 101.33 kPa	1402
289.15 K, 101.33 kPa	1401
290.15 K, 101.33 kPa	1400.1
291.15 K, 101.33 kPa	1399.2
292.15 K, 101.33 kPa	1398.3
293.15 K, 101.33 kPa	1397.4
294.15 K, 101.33 kPa	1396.5
295.15 K, 101.33 kPa	1395.6
296.15 K, 101.33 kPa	1394.7
297.15 K, 101.33 kPa	1393.8
298.15 K, 100 kPa	1394
298.15 K, 101.33 kPa	1392.9
298.15 K, 1000 kPa	1394.7
298.15 K, 10000 kPa	1401.2
298.15 K, 20000 kPa	1408.2
298.15 K, 40000 kPa	1421.2
298.15 K, 60000 kPa	1433.1
298.15 K, 80000 kPa	1444.1
298.15 K, 100000 kPa	1454.5
298.15 K, 120000 kPa	1464.3
299.15 K, 101.33 kPa	1392
300.15 K, 101.33 kPa	1391.1
301.15 K, 101.33 kPa	1390.2
302.15 K, 101.33 kPa	1389.4
303.15 K, 101.33 kPa	1388.5
304.15 K, 101.33 kPa	1387.6
305.15 K, 101.33 kPa	1386.7
306.15 K, 101.33 kPa	1385.8
307.15 K, 101.33 kPa	1385
308.15 K, 101.33 kPa	1384.1
309.15 K, 101.33 kPa	1383.2
310.15 K, 101.33 kPa	1382.4
311.15 K, 101.33 kPa	1381.5
312.15 K, 101.33 kPa	1380.6
313.15 K, 100 kPa	1380.9
313.15 K, 101.33 kPa	1379.7
313.15 K, 1000 kPa	1381.6
313.15 K, 10000 kPa	1388.4
313.15 K, 20000 kPa	1395.7
313.15 K, 40000 kPa	1409.2
313.15 K, 60000 kPa	1421.7
313.15 K, 80000 kPa	1433
313.15 K, 100000 kPa	1443.7
313.15 K, 120000 kPa	1453.7
314.15 K, 101.33 kPa	1378.9
315.15 K, 101.33 kPa	1378
316.15 K, 101.33 kPa	1377.1
317.15 K, 101.33 kPa	1376.3
318.15 K, 101.33 kPa	1375.4
319.15 K, 101.33 kPa	1374.5
320.15 K, 101.33 kPa	1373.7
321.15 K, 101.33 kPa	1372.8
322.15 K, 101.33 kPa	1372
323.15 K, 101.33 kPa	1371.1
324.15 K, 101.33 kPa	1370.3
325.15 K, 101.33 kPa	1369.4
326.15 K, 101.33 kPa	1368.6
327.15 K, 101.33 kPa	1367.7
328.15 K, 101.33 kPa	1366.8
329.15 K, 101.33 kPa	1366
330.15 K, 101.33 kPa	1365.1
331.15 K, 101.33 kPa	1364.3
332.15 K, 101.33 kPa	1363.4
333.15 K, 100 kPa	1363.4
333.15 K, 101.33 kPa	1362.6
333.15 K, 1000 kPa	1364.2
333.15 K, 10000 kPa	1371.6
333.15 K, 20000 kPa	1379.3
333.15 K, 40000 kPa	1393.4
333.15 K, 60000 kPa	1406.4
333.15 K, 80000 kPa	1418.3
333.15 K, 100000 kPa	1429.5
333.15 K, 120000 kPa	1439.8
334.15 K, 101.33 kPa	1361.7
335.15 K, 101.33 kPa	1360.9
336.15 K, 101.33 kPa	1360
337.15 K, 101.33 kPa	1359.2
338.15 K, 101.33 kPa	1358.3
339.15 K, 101.33 kPa	1357.5
340.15 K, 101.33 kPa	1356.7
341.15 K, 101.33 kPa	1355.9
342.15 K, 101.33 kPa	1355
343.15 K, 101.33 kPa	1354.1
344.15 K, 101.33 kPa	1353.3
345.15 K, 101.33 kPa	1352.6
346.15 K, 101.33 kPa	1351.6
347.15 K, 101.33 kPa	1350.8
348.15 K, 100 kPa	1350.3
348.15 K, 101.33 kPa	1349.9
348.15 K, 1000 kPa	1351
348.15 K, 10000 kPa	1358.7
348.15 K, 20000 kPa	1366.7
348.15 K, 40000 kPa	1381.5
348.15 K, 60000 kPa	1394.9
348.15 K, 80000 kPa	1407.1
348.15 K, 100000 kPa	1418.6
348.15 K, 120000 kPa	1429.3
349.15 K, 101.33 kPa	1349.2
350.15 K, 101.33 kPa	1348.3
351.15 K, 101.33 kPa	1347.4
352.15 K, 101.33 kPa	1346.6
353.15 K, 101.33 kPa	1345.7
354.15 K, 101.33 kPa	1344.9
355.15 K, 101.33 kPa	1344
356.15 K, 101.33 kPa	1343.2
357.15 K, 101.33 kPa	1342.3
358.15 K, 101.33 kPa	1341.5
359.15 K, 101.33 kPa	1340.6
360.15 K, 101.33 kPa	1339.8
361.15 K, 101.33 kPa	1338.9
362.15 K, 101.33 kPa	1338
363.15 K, 101.33 kPa	1337
364.15 K, 101.33 kPa	1336.1
365.15 K, 101.33 kPa	1335.2
366.15 K, 101.33 kPa	1334.3
367.15 K, 101.33 kPa	1333.4
368.15 K, 101.33 kPa	1332.5
369.15 K, 101.33 kPa	1331.7
370.15 K, 101.33 kPa	1330.9
371.15 K, 101.33 kPa	1330.1
372.15 K, 101.33 kPa	1329.2
373.15 K, 100 kPa	1329.5
373.15 K, 101.33 kPa	1328.4
373.15 K, 1000 kPa	1329.7
373.15 K, 10000 kPa	1338
373.15 K, 20000 kPa	1346.6
373.15 K, 40000 kPa	1362.3
373.15 K, 60000 kPa	1376.5
373.15 K, 80000 kPa	1389.5
373.15 K, 100000 kPa	1401.5
373.15 K, 120000 kPa	1412.7
398.15 K, 100 kPa	1309.1
398.15 K, 1000 kPa	1308.9
398.15 K, 10000 kPa	1317.8
398.15 K, 20000 kPa	1327
398.15 K, 40000 kPa	1343.7
398.15 K, 60000 kPa	1358.6
398.15 K, 80000 kPa	1372.3
398.15 K, 100000 kPa	1384.8
398.15 K, 120000 kPa	1396.6
